Results published in patent publication US11124516B2, “Pyrrolo[1,2-A]pyrimidinyl carboxamide compounds and their use in the treatment of medical disorders” (Bial—Biotech Investments, Inc., priority 2016, dated 2021).
≈ marks a conversion by molar mass, not a printed value.

Target: T1, glucocerebrosidase (Gcase) (Homo sapiens, UniProt P04062)
T1 sequence (P04062 40-536): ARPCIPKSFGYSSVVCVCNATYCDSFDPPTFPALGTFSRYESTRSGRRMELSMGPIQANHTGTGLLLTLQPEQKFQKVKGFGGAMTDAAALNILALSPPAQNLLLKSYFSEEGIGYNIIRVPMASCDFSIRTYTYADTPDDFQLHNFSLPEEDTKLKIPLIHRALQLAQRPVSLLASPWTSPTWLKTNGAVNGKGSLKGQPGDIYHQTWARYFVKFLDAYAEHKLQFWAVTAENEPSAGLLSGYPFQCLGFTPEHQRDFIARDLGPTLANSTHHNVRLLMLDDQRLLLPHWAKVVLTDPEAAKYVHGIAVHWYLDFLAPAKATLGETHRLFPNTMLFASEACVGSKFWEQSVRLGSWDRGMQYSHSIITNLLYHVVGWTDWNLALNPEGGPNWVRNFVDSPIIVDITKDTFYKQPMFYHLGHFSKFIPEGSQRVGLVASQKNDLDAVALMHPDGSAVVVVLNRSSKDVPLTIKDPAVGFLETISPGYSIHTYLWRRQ
Assay: Glucocerebrosidase (Gcase) activation assay, 4-methylumbelliferyl-beta-D-glucopyranoside substrate, fluorescence
Type: biochemical
Conditions: 0.25 h, pH 4.7, test compound at 0.1 μM, 10 nM GCase, 100 nM saposin C, read-out: Percent Gcase Activation 0.1 μM Test Compound
Description: The ability of exemplary compounds to activate glucocerebrosidase (Gcase) was measured.
A 484 μL aliquot of a 1.0 mg/mL solution of phosphatidylserine (PS) (Sigma P7769) in chloroform was evaporated under a stream of nitrogen for 1 hour. The lipid film was dissolved over 4 minutes of vigorous vortexing in 40 mL of 176 mM K2HPO4/50 mM citric acid (pH 4.7) containing 7.5 μL of triton X-100, resulting in a mixed micellar preparation with a composition of 0.32 mM triton and 0.37 mol % PS. 4-Methylumbelliferyl-beta-D-glucopyranoside (ACROS-337025000) was dissolved in the micellar solution to a final concentration of 2 mM for use as the reaction substrate.
Test compounds were diluted to the desired concentrations with dimethylsulfoxide (DMSO) from 10 mM stocks, and 0.41 μL of the DMSO compound mixture was added to 100 μL of micellar solution containing 10 nM GCase and 100 nM saposin C (Enzo ALX-201-262-C050). Pre-incubation was allowed to occur for 30 minutes at room temperature, after which the reaction was initiated by combining 25 μL of substrate solution with 25 μL of compound/GCase/saposin mixture. The reaction proceeded for 15 minutes at room temperature and was stopped by adding 150 μL of 1M glycine, pH 12.5. The endpoint of the reaction was monitored by measuring fluorescence intensity (excitation: 365 nm; emission: 440 nm) on a SpectraMax i3 instrument (Molecular Devices). Test compounds were screened at 1.0 and 0.1 μM final concentration, and subsequent 8-point dose response curves were obtained using 3-fold dilutions from a maximum final concentration of 5 μM.
For experiments in which the test compound was used at a concentration of 1.0 μM, the symbol “+” indicates less than 30% Gcase activation; the symbol “++” indicates Gcase activation in the range of 30% up to 60%; and the symbol “+++” indicates Gcase activation greater than 60%. For experiments in which the test compound was used at a concentration of 0.1 μM, the symbol “*” indicates less than 10% Gcase activation; the symbol “**” indicates Gcase activation in the range of 10% up to 20%; and the symbol “***” indicates greater than 20% Gcase activation.

| Compound | activation at 0.1 µM [%] |
| --- | --- |
| COC1CCC(Nc2cc(C)n3ccc(C(=O)NC(C)(C)C4CC4)c3n2)CC1 (stereo not drawn) [II1-37] | < 10 |
| COCc1cc(C)nc2c(C(=O)NC(C)(C)C3CC3)ccn12 [III 16] | > 20 |
| COCc1cc(C(F)F)nc2c(C(=O)NC(C)(C)C3CC3)ccn12 [III-3] | > 20 |
| COCc1cc(C(F)F)n2ccc(C(=O)NC(C)(C)C3CC3)c2n1 [III-4] | > 20 |
| COCc1cc(C(F)F)nc2c(C(=O)NC(C)(C)C3CCC3)ccn12 [III-5] | 10 to 20 |
| C[C@H](NC(=O)c1ccn2c(C(F)F)cc(C(F)F)nc12)C1CC1 [III-6] | 10 to 20 |
| Cc1cc(C(F)F)nc2c(C(=O)N[C@@H](C)C3CC3)ccn12 [III-7] | > 20 |
| Cc1cc(C(F)F)n2ccc(C(=O)N[C@@H](C)C3CC3)c2n1 [III-8] | > 20 |
| CNc1cc(C)n2ccc(C(=O)NC(C)(C)C3CC3)c2n1 [III-10] | > 20 |
| Cc1cc(Cl)nc2c(C(=O)NC(C)(C)C3CC3)ccn12 [III-11] | > 20 |
| Cc1cc(Cl)n2ccc(C(=O)NC(C)(C)C3CC3)c2n1 [III-12] | 10 to 20 |
| COc1cc(C)n2ccc(C(=O)NC(C)(C)C3CC3)c2n1 [III-13] | 10 to 20 |
| Cc1cc(Br)nc2c(C(=O)NC(C)(C)C3CC3)ccn12 [III-14] | 10 to 20 |

Further lines, results first:

| activation at 0.1 µM [%] | Compound |
| --- | --- |
| 10 to 20 | COCc1cc(C)n2ccc(C(=O)NC(C)(C)C3CC3)c2n1 [III-15] |
| 10 to 20 | Cc1cc(F)nc2c(C(=O)NC(C)(C)C3CC3)ccn12 [III-17] |
| 10 to 20 | Cc1cc(C)n2ccc(C(=O)NC3(c4ccccc4)CC3)c2n1 [III-18] |
| > 20 | Cc1cc(C)n2ccc(C(=O)NC(C)(C)CC3CC3)c2n1 [III-19] |
| < 10 | COCC(NC(=O)c1ccn2c(C)cc(C)nc12)c1ccccc1 (stereo not drawn) [III-20] |
| 10 to 20 | Cc1cc(C)n2ccc(C(=O)NC3(C4CC4)CC3)c2n1 [III-22] |
| > 20 | Cc1cc(C)n2ccc(C(=O)NC(C)(C)C3CC3)c2n1 [III-23] |
| > 20 | Cc1cc(C)n2ccc(C(=O)NC(CC(C)C)C3CC3)c2n1 (stereo not drawn) [III-24] |
| < 10 | Cc1cc(C)n2cc(C3CC3)c(C(=O)NC(C)(C)C3CC3)c2n1 [III-25] |

Same assay, conditions: 0.25 h, pH 4.7, test compound at 1.0 μM, 10 nM GCase, 100 nM saposin C, read-out: Percent Gcase Activation 1 μM Test Compound

| Compound | activation at 1 µM [%] |
| --- | --- |
| COC1CCC(Nc2cc(C)n3ccc(C(=O)NC(C)(C)C4CC4)c3n2)CC1 (stereo not drawn) [II1-37] | 30 to 60 |
| COCc1cc(C)nc2c(C(=O)NC(C)(C)C3CC3)ccn12 [III 16] | > 60 |
| COCc1cc(C(F)F)nc2c(C(=O)NC(C)(C)C3CC3)ccn12 [III-3] | > 60 |
| COCc1cc(C(F)F)n2ccc(C(=O)NC(C)(C)C3CC3)c2n1 [III-4] | > 60 |
| COCc1cc(C(F)F)nc2c(C(=O)NC(C)(C)C3CCC3)ccn12 [III-5] | > 60 |
| C[C@H](NC(=O)c1ccn2c(C(F)F)cc(C(F)F)nc12)C1CC1 [III-6] | > 60 |
| Cc1cc(C(F)F)nc2c(C(=O)N[C@@H](C)C3CC3)ccn12 [III-7] | > 60 |
| Cc1cc(C(F)F)n2ccc(C(=O)N[C@@H](C)C3CC3)c2n1 [III-8] | > 60 |
| CNc1cc(C)n2ccc(C(=O)NC(C)(C)C3CC3)c2n1 [III-10] | > 60 |
| Cc1cc(Cl)nc2c(C(=O)NC(C)(C)C3CC3)ccn12 [III-11] | > 60 |
| Cc1cc(Cl)n2ccc(C(=O)NC(C)(C)C3CC3)c2n1 [III-12] | > 60 |
| COc1cc(C)n2ccc(C(=O)NC(C)(C)C3CC3)c2n1 [III-13] | > 60 |
| Cc1cc(Br)nc2c(C(=O)NC(C)(C)C3CC3)ccn12 [III-14] | > 60 |

More lines, now with the values ahead:

| activation at 1 µM [%] | Compound |
| --- | --- |
| > 60 | COCc1cc(C)n2ccc(C(=O)NC(C)(C)C3CC3)c2n1 [III-15] |
| > 60 | Cc1cc(F)nc2c(C(=O)NC(C)(C)C3CC3)ccn12 [III-17] |
| > 60 | Cc1cc(C)n2ccc(C(=O)NC3(c4ccccc4)CC3)c2n1 [III-18] |
| > 60 | Cc1cc(C)n2ccc(C(=O)NC(C)(C)CC3CC3)c2n1 [III-19] |
| > 60 | COCC(NC(=O)c1ccn2c(C)cc(C)nc12)c1ccccc1 (stereo not drawn) [III-20] |
| > 60 | Cc1cc(C)n2ccc(C(=O)NC3(C4CC4)CC3)c2n1 [III-22] |
| > 60 | Cc1cc(C)n2ccc(C(=O)NC(C)(C)C3CC3)c2n1 [III-23] |
| > 60 | Cc1cc(C)n2ccc(C(=O)NC(CC(C)C)C3CC3)c2n1 (stereo not drawn) [III-24] |
| 30 to 60 | Cc1cc(C)n2cc(C3CC3)c(C(=O)NC(C)(C)C3CC3)c2n1 [III-25] |

System: not listed separately
Assay: Compound solubility in water
Type: physicochemical
Conditions: not given

| Compound | solubility [mg/mL] |
| --- | --- |
| COC1CCC(Nc2cc(C)n3ccc(C(=O)NC(C)(C)C4CC4)c3n2)CC1 (stereo not drawn) [II1-37] | 0.0102 (≈ 26.5 µM) |
| COCc1cc(C)nc2c(C(=O)NC(C)(C)C3CC3)ccn12 [III 16] | 0.0198 (≈ 65.7 µM) |
| COCc1cc(C(F)F)nc2c(C(=O)NC(C)(C)C3CC3)ccn12 [III-3] | 0.0038 (≈ 11.3 µM) |
| COCc1cc(C(F)F)n2ccc(C(=O)NC(C)(C)C3CC3)c2n1 [III-4] | 0.017 (≈ 50.4 µM) |
| COCc1cc(C(F)F)nc2c(C(=O)NC(C)(C)C3CCC3)ccn12 [III-5] | 0.003 (≈ 8.54 µM) |
| C[C@H](NC(=O)c1ccn2c(C(F)F)cc(C(F)F)nc12)C1CC1 [III-6] | 0.0335 (≈ 102 µM) |
| Cc1cc(C(F)F)nc2c(C(=O)N[C@@H](C)C3CC3)ccn12 [III-7] | 0.0095 (≈ 32.4 µM) |
| Cc1cc(C(F)F)n2ccc(C(=O)N[C@@H](C)C3CC3)c2n1 [III-8] | 0.0201 (≈ 68.5 µM) |
| CNc1cc(C)n2ccc(C(=O)NC(C)(C)C3CC3)c2n1 [III-10] | 0.011 (≈ 38.4 µM) |
| Cc1cc(Cl)nc2c(C(=O)NC(C)(C)C3CC3)ccn12 [III-11] | 0.0011 (≈ 3.77 µM) |
| Cc1cc(Cl)n2ccc(C(=O)NC(C)(C)C3CC3)c2n1 [III-12] | 0.0058 (≈ 19.9 µM) |
| COc1cc(C)n2ccc(C(=O)NC(C)(C)C3CC3)c2n1 [III-13] | 0.0115 (≈ 40 µM) |
| Cc1cc(Br)nc2c(C(=O)NC(C)(C)C3CC3)ccn12 [III-14] | 0.0029 (≈ 8.62 µM) |

Now from value to compound:

| solubility [mg/mL] | Compound |
| --- | --- |
| 0.0219 (≈ 72.7 µM) | COCc1cc(C)n2ccc(C(=O)NC(C)(C)C3CC3)c2n1 [III-15] |
| 0.0063 (≈ 22.9 µM) | Cc1cc(F)nc2c(C(=O)NC(C)(C)C3CC3)ccn12 [III-17] |
| 0.0077 (≈ 25.2 µM) | Cc1cc(C)n2ccc(C(=O)NC3(c4ccccc4)CC3)c2n1 [III-18] |
| 0.0147 (≈ 51.5 µM) | Cc1cc(C)n2ccc(C(=O)NC(C)(C)CC3CC3)c2n1 [III-19] |
| 0.0137 (≈ 42.4 µM) | COCC(NC(=O)c1ccn2c(C)cc(C)nc12)c1ccccc1 (stereo not drawn) [III-20] |
| 0.0214 (≈ 79.5 µM) | Cc1cc(C)n2ccc(C(=O)NC3(C4CC4)CC3)c2n1 [III-22] |
| 0.0187 (≈ 68.9 µM) | Cc1cc(C)n2ccc(C(=O)NC(C)(C)C3CC3)c2n1 [III-23] |
| 0.0109 (≈ 36.4 µM) | Cc1cc(C)n2ccc(C(=O)NC(CC(C)C)C3CC3)c2n1 (stereo not drawn) [III-24] |
| 0.0003 (≈ 0.963 µM) | Cc1cc(C)n2cc(C3CC3)c(C(=O)NC(C)(C)C3CC3)c2n1 [III-25] |
